Test results from US20050004216A1, “Treating asthma, chronic obstructive pulmonary disease and/or other respiratory difficulties” (priority 2001, published 2005).

Columns and labels:
[1] = system: asthma, chronic obstructive pulmonary disease and/or other respiratory difficulties; experiment: Trial examples: oral capsules in patients with asthma and/or chronic obstructive pulmonary disease; format: in vivo, human; settings: trials with a variety of patients; dosage forms of cetyl myristate alone
Excerpt: Examples of use follows. […] That mixture comprises by weight 95% cetyl myristate and 5% cetyl palmitate by weight manufactured by the process as disclosed in NZ Patent Specification No. 332959. In addition added excipients were present in the admixture and then encapsulated in the non gelatin two part capsule case.

[2] = laboratory experiments; reference to website www.gcinutrients.com; cited from earlier work

Compound: CCCCCCCCCCCCCCCCOC(=O)CCCCCCCCCCCCC [cetyl myristate]
- relief from the symptoms of asthma, chronic obstructive pulmonary disease and/or other respiratory difficulties [1]: favourable responses
- anti-arthritic activity [2]: negligible
